Assay results from US7687079B2, “Methods of treating ileus” (priority 2002, dated 2010).

Columns and labels:
[1] = system: MPO-positive leukocytes in intestinal muscularis; experiment: myeloperoxidase histochemistry, leukocyte recruitment into intestinal muscularis after SITx; assay type: in vivo, rat
Procedure: Muscularis whole mounts were prepared from the mid small intestine collected 24 hours post-operatively. Segments of intestine were immersed in KRB in a Sylgaard™-lined glass dish and pinned without stretching along the mesenteric border. The length and width of the segments were measured with a caliper. The […] was then opened along the mesenteric border and stretched to 150% of the length and 250% of the width. The mucosa and submucosa were removed using fine forceps, and the remaining tissue fixed in 100% denatured ethanol for 30 minutes. […] Tissues were mounted on glass slides using Gel/Mount™ (Biomedia Corp., Foster City, Calif.), cover-slipped and inspected by light microscopy (Nikon FXA, Fryer, Huntley, Ill.) at a magnification of 200×. Numbers of MPO-positive PMN's infiltrating the muscularis extemae were determined from the mean counts collected from five to six adjacent optical fields centered between the mesenteric and anti-mesenteric borders.

[2] = system: IL-6, IL-1β, TNFα, ICAM-1, COX-2, iNOS, IL-10 mRNA; experiment: real time RT-PCR of inflammatory mediators, CO alone without surgery; assay type: in vivo, rat; conditions: inhalation of CO alone (no surgery)
Procedure: The effects of inhalation of CO on transplant-induced pro-inflammatory and anti-inflammatory gene expression was assessed in muscularis extracts by RT-PCR. Muscularis extemae was collected from normal intestine and transplanted grafts 4 hours postoperatively and snap frozen in liquid nitrogen. This time point falls within the range of maximum inflammatory mediator expression that occurs between 3 and 6 hours following abdominal incision. Total RNA extraction was performed using the guanidium-thiocyanate phenol-chloroform extraction method as described previously (Eskandari et al., Am. J. Clin. Pathol. 75(3):367-370 (1997)). RNA pellets were resuspended in RNA-secure resuspension solution (Ambion Inc., Austin, Tex.), followed by removal of potentially contaminating DNA by treatment with DNase I (DNA-Free Kit, Ambion Inc., Austin, Tex.). Equal aliquots (5 μg) of total RNA from each sample were quantified by spectrophotometry (wavelength […]) and aliquoted at a concentration of 40 ng/μl. Peak mRNA expression was quantified in duplicate by SYBR Green two-step, real-time RT-PCR. […] Real-time PCR data were plotted as the ΔRn, fluorescence signal versus the cycle number. […] Quantification of mRNA expression was normalized to GAPDH and calculated relative to control using the comparative CT method (Schmittgen et al., J. Biochem. Biophys. Methods 46(1-2):69-8 (2000)). […]

[3] = system: total nitrite (NO production); experiment: total nitrite release from muscularis extracts (index of iNOS activity); assay type: in vivo, mouse; conditions: IM + CO vs IM, 24 hours after surgery
Procedure: Protein and Nitric Oxide Determinations. The small bowel of control and mice subjected to intestinal manipulation was removed under sterile conditions, 4 or 24 hours post-operatively, leaving the colon in situ. The small intestine was transferred to a beaker containing chilled Hanks balanced salt solution (Sigma, St. Louis, Mo.) with 200 U/ml penicillin G and 200 μg/ml streptomycin (HBSS), the lumen flushed, and the tissue transferred to a second beaker of HBSS. The muscularis was harvested as described above for real time RT-PCR. Tissues were maintained under sterile conditions at 3 to 5° C. throughout the harvesting procedure. Isolated muscularis was blotted onto sterile gauze, and the wet weight determined to obtain aliquots of 40 to 60 mg. […]
After the incubation period, the muscle tissue was pelleted, and aliquots of culture medium were frozen in liquid nitrogen and stored at −80° C. The levels of IL-6, IL-1β, PGE2, and IL-10 proteins secreted into the culture medium were determined using commercially available ELISA kits (R&D Systems, Minneapolis, Minn.) according to the manufacturer's instructions. […] Nitrate/nitrate levels were measured 24 hrs postoperatively using commercially available test kit (Oxford Biomedical Research, Oxford, Mich.) and quantified according to the manufacturer's directions. […]

[4] = system: pigs with ileus induced by mild manipulation of the small intestine; experiment: intestinal transit of steel ball bearings after IM in pig model; assay type: in vivo; conditions: CO 250 ppm for 3 hr prior to IM
Procedure: Similar experiments were performed in a pig model. Ileus was induced by mild manipulation of the small intestine (IM). Pigs were exposed to CO (250 ppm) or air (controls) for a period of 3 hr prior to IM. Gastrointestinal function was assessed in vivo by observing intestinal transit of steel ball bearings placed within the small intestine.

Q: How did the MPO-positive cells ([1]; CO-treated control rats (unoperated)) turn out when `[C-]#[O+]` [CO, carbon monoxide] was run?
A: The MPO-positive cells was “rare”.

Q: And the “mean number of MPO positive cells” value ([1]; SITx + CO, 24 hours after SITx, not statistically significant (p=0.08, n=6))?
A: The value was “decreased”.

Q: And the Inflammatory infiltrates ([1]; SITx + CO, Table 2)?
A: The Inflammatory infiltrates was 21 ± 3.2 /200x field.

Q: And the “expression of any of the mediators studied” value [2]?
A: The value was “no effect”.

Q: What about the “surgically induced increase in nitrite release” value [3] of the same compound?
A: The value was “significantly inhibited”.

Q: And the intestinal transit [4]?
A: The intestinal transit was “improve”.
